Reference: ChEMBL document CHEMBL3774365, “Design, synthesis, pharmacological evaluation, and docking study of new acridone-based 1,2,4-oxadiazoles as potential anticonvulsant agents” (Eur J Med Chem, 2016)
pIC50: −log10 of the molar value. Activity calls are given as the source filed them. The rule behind the calls is not given here.

Tests used:
Mus musculus [1] = experiment: Anticonvulsant activity against maximal electroshock-induced seizures in ip dosed mouse assessed as protection against hind limb tonic extension incubated for 30 mins prior to 60 Hz maximal electroshock challenge measured for 30 s; assay type: functional; settings: Hindlimb
Mus musculus [2] = experiment: Anticonvulsant activity against pentylenetetrazole-induced seizures in ip dosed mouse incubated for 30 mins prior to pentylenetetrazole challenge measured after 30 mins; assay type: functional
MCF7 = experiment: Cytotoxicity against human MCF7 cells after 48 hrs by MTT assay; assay type: cell-based; settings: MCF7, 48 h
[3] = Protective index, ratio of TD50 for ip dosed mouse neurotoxicity to ED50 for protection against 60 Hz electroshock-induced seizure in ip dosed mouse; assay type: toxicity, organism-based; settings: in vivo, read-out: Ratio TD50/ED50
MDA-MB-231 = experiment: Cytotoxicity against human MDA-MB-231 cells after 48 hrs by MTT assay; assay type: cell-based; settings: MDA-MB-231, 48 h
[4] = Neurotoxicity in ip dosed mouse assessed as minimal motor impairment measured for 1 min by rotarod test; assay type: toxicity, organism-based; settings: in vivo
[5] = Protective index, ratio of TD50 for ip dosed mouse neurotoxicity to ED50 for protection against PTZ-induced seizure in ip dosed mouse; assay type: toxicity, organism-based; settings: in vivo, read-out: Ratio TD50/ED50
T47D = experiment: Cytotoxicity against human T47D cells after 48 hrs by MTT assay; assay type: cell-based
Mus musculus [6] = experiment: Potency index, ratio of phenobarbital ED50 to compound ED50 for protection against maximal electroshock-induced seizures in ip dosed mouse; assay type: functional
Mus musculus [7] = experiment: Anticonvulsant activity against pentylenetetrazole-induced seizures in mouse at 1 to 10 mg/kg, ip incubated for 30 mins prior to PTZ challenge measured after 30 mins in presence of benzodiazepine receptor antagonist flumazenil; assay type: functional, organism-based

| Compound | ED50 (Mus musculus [1]) [mg/kg] | ED50 (Mus musculus [2]) [mg/kg] | pIC50 (MCF7) | selectivity ratio [3] | pIC50 (MDA-MB-231) | TD50 at 1 min [4] [mg/kg] | selectivity ratio [5] | pIC50 (T47D) | Ratio ED50 (Mus musculus [6]) | Activity (Mus musculus [7]) |
| --- | --- | --- | --- | --- | --- | --- | --- | --- | --- | --- |
| CN1C(=O)CN=C(c2ccccc2)c2cc(Cl)ccc21 [DIAZEPAM] | 0.98 | 0.68 | – | – | – | – | – | – | – | – |
| O=c1c2ccccc2n(Cc2nc(-c3ccc(Cl)cc3)no2)c2ccccc12 | 3.57 | 5.78 | < 4.30 | 148 | < 4.30 | 528 | 91.3 | < 4.30 | – | – |
| O=c1c2ccccc2n(Cc2nc(-c3ccc(Cl)cc3)no2)c2ccc(Br)cc12 | 2.87 | 7.57 | < 4.30 | 178 | < 4.30 | 512 | 67.6 | < 4.30 | 7 | – |
| Cc1ccc2c(c1)c(=O)c1ccccc1n2Cc1nc(-c2ccc(Cl)cc2)no1 | 6.53 | 15.2 | < 4.30 | 72.7 | < 4.30 | 475 | 31.3 | < 4.30 | – | – |
| CCC1(c2ccccc2)C(=O)NC(=O)NC1=O [PHENOBARBITAL] | 20.6 | 12.4 | – | 3.3 | – | 68.9 | 5.5 | – | – | – |
| COc1ccc2c(c1)c(=O)c1ccccc1n2Cc1nc(-c2ccc(C)cc2)no1 | 3.25 | 6.32 | < 4.30 | 160 | < 4.30 | 522 | 82.4 | < 4.30 | – | – |
| Cc1ccc(-c2noc(Cn3c4ccccc4c(=O)c4cc(Br)ccc43)n2)cc1 | 5.12 | > 50 | < 4.30 | 116 | < 4.30 | 594 | < 11.9 | < 4.30 | – | – |
| Cc1ccc(-c2noc(Cn3c4ccccc4c(=O)c4cc(Cl)ccc43)n2)cc1 | 2.24 | 6.25 | < 4.30 | 216 | < 4.30 | 483 | 77.3 | < 4.30 | 7 | – |
| Cc1ccc(-c2noc(Cn3c4ccccc4c(=O)c4cc(C)ccc43)n2)cc1 | 2.77 | > 50 | < 4.30 | 196 | < 4.30 | 542 | < 10.8 | < 4.30 | 7 | – |
| CCc1ccc2c(c1)c(=O)c1ccccc1n2Cc1nc(-c2ccc(C)cc2)no1 | 8.31 | 18.9 | < 4.30 | 59.6 | < 4.30 | 496 | 26.1 | < 4.30 | – | – |
| Cc1ccc(-c2noc(Cn3c4ccccc4c(=O)c4ccccc43)n2)cc1 | 2.52 | 6.37 | < 4.30 | 214 | < 4.30 | 538 | 84.5 | < 4.30 | 7 | – |
| COc1ccc(-c2noc(Cn3c4ccccc4c(=O)c4cc(Br)ccc43)n2)cc1 | 8.71 | 6.21 | < 4.30 | 54.1 | < 4.30 | 471 | 75.8 | < 4.30 | – | – |
| O=c1c2ccccc2n(Cc2nc(-c3ccc(Cl)cc3)no2)c2ccc(Cl)cc12 | 2.64 | 4.16 | < 4.30 | 172 | < 4.30 | 454 | 109 | < 4.30 | 7 | – |
| COc1ccc2c(c1)c(=O)c1ccccc1n2Cc1nc(-c2ccc(Cl)cc2)no1 | 3.68 | 5.22 | < 4.30 | 150 | < 4.30 | 553 | 106 | < 4.30 | – | – |
| COc1ccc(-c2noc(Cn3c4ccccc4c(=O)c4cc(Cl)ccc43)n2)cc1 | 3.71 | 2.08 | < 4.30 | 118 | < 4.30 | 438 | 211 | < 4.30 | – | inactive |
| COc1ccc(-c2noc(Cn3c4ccccc4c(=O)c4cc(OC)ccc43)n2)cc1 | 2.42 | 2.12 | < 4.30 | 191 | < 4.30 | 462 | 217 | < 4.30 | 7 | – |
| COc1cc([C@@H]2c3cc4c(cc3[C@@H](O[C@@H]3O[C@@H]5CO[C@@H](C)O[C@H]5[C@H](O)[C@H]3O)[C@H]3COC(=O)[C@H]23)OCO4)cc(OC)c1O [ETOPOSIDE] | – | – | – | – | 4.80 | – | – | 4.93 | – | – |
